What was measured:
[1] = target: T1, factor VIIa (Homo sapiens, UniProt P08709); experiment: Inhibition of factor VIIa; assay type: biochemical
T1 sequence (P08709 213-466 limits assumed): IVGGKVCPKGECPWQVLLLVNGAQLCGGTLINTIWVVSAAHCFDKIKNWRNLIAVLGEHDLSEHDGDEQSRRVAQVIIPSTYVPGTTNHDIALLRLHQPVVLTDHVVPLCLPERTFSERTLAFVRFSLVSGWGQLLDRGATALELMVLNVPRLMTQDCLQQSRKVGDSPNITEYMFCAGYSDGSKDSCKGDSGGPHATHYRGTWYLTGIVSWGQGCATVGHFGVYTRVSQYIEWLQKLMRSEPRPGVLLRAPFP
T1 sequence (P08709 61-212 limits assumed): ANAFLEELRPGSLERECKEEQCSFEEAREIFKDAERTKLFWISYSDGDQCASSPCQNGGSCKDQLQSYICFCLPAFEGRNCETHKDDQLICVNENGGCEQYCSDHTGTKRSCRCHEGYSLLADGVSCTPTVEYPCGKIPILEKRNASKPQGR
Excerpt: Coagulation factor VIIa initiates the extrinsic part of the coagulation cascade after binding to tissue factor and contributes to the activation of factor X to give factor Xa. Inhibition of factor VIIa thus prevents the formation of factor Xa and thus subsequent thrombin formation. The inhibition of factor VIIa by the compounds according to the invention and the measurement of the anticoagulant and antithrombotic activity can be determined by conventional in-vitro or in-vivo methods. A conventional method for the measurement of the inhibition of factor VIIa is described, for example, by H. F. Ronning et al. in Thrombosis Research 1996, 84, 73-81.

[2] = target: factor Xa (Homo sapiens, UniProt P00742); experiment: Inhibition of factor Xa; assay type: biochemical
Excerpt: The inhibition of factor Xa by the compounds according to the invention and the measurement of the anticoagulant and antithrombotic activity can be determined by conventional in-vitro or in-vivo methods. A suitable method is described, for example, by J. Hauptmann et al. in Thrombosis and Haemostasis 1990, 63, 220-223.
The inhibition of factor Xa can be measured, for example, by the method of T. Hara et al. in Thromb. Haemostas. 1994, 71, 314-319.

Sequence of factor Xa (P00742 235-488 limits assumed): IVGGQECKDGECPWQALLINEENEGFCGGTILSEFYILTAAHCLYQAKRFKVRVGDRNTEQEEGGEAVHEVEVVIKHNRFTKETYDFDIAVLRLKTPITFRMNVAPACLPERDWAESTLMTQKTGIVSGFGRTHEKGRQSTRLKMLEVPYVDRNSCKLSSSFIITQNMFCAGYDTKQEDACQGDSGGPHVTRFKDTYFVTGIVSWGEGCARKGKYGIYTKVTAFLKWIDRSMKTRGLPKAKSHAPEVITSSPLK
Sequence of factor Xa (P00742 41-179 limits assumed): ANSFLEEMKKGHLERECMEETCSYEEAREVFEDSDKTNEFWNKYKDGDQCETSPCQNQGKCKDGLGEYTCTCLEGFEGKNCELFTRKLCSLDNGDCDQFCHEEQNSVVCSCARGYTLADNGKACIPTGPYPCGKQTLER

| Structure (SMILES) | IC50 [1] [nM] | IC50 [2] [nM] |
| --- | --- | --- |
| N=C(N)c1cccc(OC(C(=O)Nc2ccc(N3CCCCC3=O)cc2)c2ccccc2)c1 (stereo not shown) [EMD 388547, 2-(3-amidinophenoxy)-N-[4-(2-oxopiperidin-1-yl)phenyl]-2-phenylacetamide] | 14 | 32 |
| CCCC(Oc1cccc(C(=N)N)c1)C(=O)Nc1ccc(N2CCCCC2=O)cc1 (stereo not shown) [2-(3-amidinophenoxy)-N-[4-(2-oxopiperidin-1-yl)phenyl]valeramide] | 33 | 70 |
| N=C(N)c1cccc(NC(C(=O)Nc2ccc(N3CCOCC3)cc2)c2ccccc2)c1 (stereo not shown) [2-(3-amidinophenylamino)-N-(4-morpholin-4-ylphenyl)-2-phenylacetamide] | 22 | 34 |
| CC(C)CC(Nc1cccc(C(=N)N)c1)C(=O)Nc1ccc(N(C)C)cc1 (stereo not shown) [2-(3-amidinophenylamino)-N-(4-dimethylaminophenyl)-4-methylvaleramide] | 21 | 160 |
| CCCC(Oc1cccc(C(=N)N)c1)C(=O)Nc1ccc(N2CCOCC2)cc1 (stereo not shown) [2-(3-amidinophenoxy)-N-(4-morpholin-4-ylphenyl)valeramide] | 490 | 300 |
| N=C(N)c1cccc(OC(C(=O)Nc2ccc(N3CCOCC3)cc2)c2ccccc2)c1 (stereo not shown) [2-(3-amidinophenoxy)-N-(4-morpholin-4-ylphenyl)-2-phenylacetamide] | 60 | 90 |
| CCCC(Oc1cccc(C(=N)N)c1)C(=O)Nc1ccc(N2CCCC2=O)cc1 (stereo not shown) [2-(3-amidinophenoxy)-N-[4-(2-oxopyrrolidin-1-yl)phenyl]valeramide] | 83 | 130 |
| N=C(N)c1cccc(OC(C(=O)Nc2ccc(N3CCCC3=O)cc2)c2ccccc2)c1 (stereo not shown) [2-(3-amidinophenoxy)-N-[4-(2-oxopyrrolidin-1-yl)phenyl]-2-phenylacetamide] | 39 | 65 |

— patent publication US7273867B2, “Phenyl derivatives” (Merck Patent GmbH, priority 2001, dated 2007)
